From patent US20070299072A1, “KV1.5 POTASSIUM CHANNEL INHIBITORS” (Wyeth, priority 2006, published 2007)

Assays:
Assay type in all cases: cell-based
[1] = molecular target: T1, HERG (Homo sapiens, UniProt Q12809); assay: HERG Patch Clamp EP (whole cell patch clamp, tail currents; single point at 10 μM and IC50); conditions: for inhibition at 10 µM: human, HEK cells stably overexpressing HERG, single point at 10 μM, HERG in HEK cells, read-out: HERG % Inhib. @ 10 μM; for IC50: concentration response
T1 construct: expressed in transfected cells; host or cells: HEK cells
Source text: The external solution is standard Tyrodes solution.

[2] = molecular target: T2, Kv1.5 (Homo sapiens, UniProt P22460); assay: Kv1.5 Patch Clamp EP (whole cell patch clamp; single point at 1 μM and IC50); conditions: for inhibition at 1 µM: single point at 1.0 μM, Kv1.5 stably over expressed in HEK or LTK- cells; for IC50: concentration response
T2 construct: expressed in transfected cells; host or cells: HEK or LTK- cells
Procedure: The external solution is standard Tyrodes solution. […] Inhibition was measured at the end of the 1 second pulses and expressed relative to controls. Initial Kv1.5 inhibition is estimated by single point determinations done at 1 μM.

[3] = tested on: L-type calcium channels; assay: FLIPR L-type Calcium Channel Assay (calcium influx in HL-1 cells after KCl); conditions: read-out: L-type Ca2+ IC50
Procedure: HL-1 cells expressing endogenous L-type calcium channels are removed from culture flasks using trypsin, plated on fibronectin/gelatin-coated, clear-bottomed, black-walled 96-well microplates in Claycomb media (JRH Biosciences #51800) containing 10% fetal bovine serum, 4 mM L-glutamine, and 10 μM norepinephrine, and grown to confluency overnight. The next day, growth medium is aspirated from confluent cell monolayers and replaced with 100 μL per well Tyrode's solution (in mM: 130 NaCl, 4 KCl, 1.8 CaCl2, 1.0 MgCl2, 20 HEPES, 10 glucose, pH 7.35) and 50 μL per well FLIPR Calcium Assay kit, component A (#R-8033, Molecular Devices Corporation) and incubated for 60 min. in a 5% CO2 37° C. incubator. 50 μL per well test compounds are added to the plates and further incubated for 15 min. in a 5% CO2 37° C. incubator. All final solutions contain the anion exchange inhibitor, probenecid (2.5 mM). The 96-well plates are then placed in the center position of the FLIPR 1 (Fluorometric Imaging Plate Reader, Molecular Devices Corporation). Cell monolayers in each well are simultaneously illuminated at 488 nm with an Argon ion laser, and fluorescence emission is monitored using a 510-570 nm bandpass filter and a cooled CCD camera. To depolarize the plasma membrane and activate L-type calcium channels, 50 μL per well of 20 mM KCl (final concentration) are dispensed simultaneously to all 96 wells using the FLIPR's automatic 96-well pipettor. Fluorescence measurements are captured for 5 min. following KCl addition. Calcium influx, expressed as % control, is calculated for each concentration of test compound and concentration-response curves and IC50 values are generated using GraphPad Prism 4.0.

T1 sequence (Q12809 whole entry): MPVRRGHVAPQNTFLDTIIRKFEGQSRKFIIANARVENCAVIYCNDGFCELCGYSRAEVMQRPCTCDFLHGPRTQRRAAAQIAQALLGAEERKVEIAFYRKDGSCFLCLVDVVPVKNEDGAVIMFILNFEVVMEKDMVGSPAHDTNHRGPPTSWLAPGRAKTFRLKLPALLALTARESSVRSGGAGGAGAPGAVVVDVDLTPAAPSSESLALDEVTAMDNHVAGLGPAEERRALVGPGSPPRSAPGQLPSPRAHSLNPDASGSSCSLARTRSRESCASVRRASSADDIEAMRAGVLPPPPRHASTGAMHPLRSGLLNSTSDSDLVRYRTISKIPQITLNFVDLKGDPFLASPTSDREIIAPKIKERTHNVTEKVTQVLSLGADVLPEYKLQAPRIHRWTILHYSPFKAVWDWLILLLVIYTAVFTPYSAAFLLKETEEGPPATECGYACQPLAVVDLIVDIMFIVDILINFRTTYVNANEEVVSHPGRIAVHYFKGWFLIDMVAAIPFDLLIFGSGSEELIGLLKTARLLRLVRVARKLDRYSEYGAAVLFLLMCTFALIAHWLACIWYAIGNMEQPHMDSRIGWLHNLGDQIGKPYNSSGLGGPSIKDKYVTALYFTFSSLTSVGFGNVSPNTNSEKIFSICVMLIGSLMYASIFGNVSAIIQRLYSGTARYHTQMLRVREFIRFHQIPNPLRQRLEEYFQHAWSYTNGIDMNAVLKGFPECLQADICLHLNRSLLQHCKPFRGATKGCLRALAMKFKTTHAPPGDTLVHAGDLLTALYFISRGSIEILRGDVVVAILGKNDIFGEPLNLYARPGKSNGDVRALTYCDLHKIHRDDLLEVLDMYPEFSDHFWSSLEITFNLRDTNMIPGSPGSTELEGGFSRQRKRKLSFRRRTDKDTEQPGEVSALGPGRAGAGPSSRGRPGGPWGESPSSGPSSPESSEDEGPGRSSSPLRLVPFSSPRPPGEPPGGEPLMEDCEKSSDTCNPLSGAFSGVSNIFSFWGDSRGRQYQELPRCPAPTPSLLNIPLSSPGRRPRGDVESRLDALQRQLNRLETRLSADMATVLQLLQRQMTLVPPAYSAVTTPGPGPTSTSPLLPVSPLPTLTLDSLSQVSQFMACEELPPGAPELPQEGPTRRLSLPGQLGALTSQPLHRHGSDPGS
T2 sequence (P22460 whole entry): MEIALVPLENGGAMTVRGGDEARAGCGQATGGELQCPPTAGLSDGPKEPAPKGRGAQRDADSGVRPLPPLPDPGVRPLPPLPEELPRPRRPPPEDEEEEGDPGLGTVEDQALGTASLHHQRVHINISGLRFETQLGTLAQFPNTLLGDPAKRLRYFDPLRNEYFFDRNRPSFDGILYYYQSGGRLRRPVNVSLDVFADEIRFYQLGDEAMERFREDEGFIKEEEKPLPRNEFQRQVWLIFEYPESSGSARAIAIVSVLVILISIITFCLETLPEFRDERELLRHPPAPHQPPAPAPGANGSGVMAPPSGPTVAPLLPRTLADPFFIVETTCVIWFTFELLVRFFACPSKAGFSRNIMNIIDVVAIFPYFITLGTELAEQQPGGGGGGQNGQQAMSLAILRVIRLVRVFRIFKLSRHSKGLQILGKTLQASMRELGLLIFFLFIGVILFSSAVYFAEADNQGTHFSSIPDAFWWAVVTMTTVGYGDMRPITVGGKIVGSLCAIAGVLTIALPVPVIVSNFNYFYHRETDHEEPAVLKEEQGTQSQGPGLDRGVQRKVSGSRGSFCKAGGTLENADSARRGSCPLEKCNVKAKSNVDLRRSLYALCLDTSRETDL

inhibition at 1 µM [2] [%]	IC50 [3] [µM]	IC50 [2] [µM]	Structure (SMILES)	inhibition at 10 µM [1] [%]	IC50 [1] [µM]
64	8		COc1ccc(CCN2C(=O)C3(CCN(CC(N)=O)CC3)N(C)C2c2ccc(C3CC3)cc2)cc1 (stereo not drawn) [Compound 55, 2-{2-(4-Cyclopropylphenyl)-3-[2-(4-methoxyphenyl)ethyl]-1-methyl-4-oxo-1,3,8-triaza-spiro[4.5]dec-8-yl}acetamide]	71	
80	25		COc1ccc(CCN2C(=O)C3(CCN(S(C)(=O)=O)CC3)N(C)C2c2ccc(C(C)(C)C)cc2)cc1 (stereo not drawn) [Compound 33, 2-(4-tert-Butylphenyl)-8-methanesulfonyl-3-[2-(4-methoxyphenyl)ethyl]-1-methyl-1,3,8-triaza-spiro[4.5]decan-4-one]	54	
94	8	0.151	COc1ccc(CCN2C(=O)C3(CCN(C(=O)C4CC4)CC3)N(C)C2c2ccc(C3CC3)cc2)cc1 (stereo not drawn) [Compound 4, 8-Cyclopropylcarbonyl-2-(4-cyclopropylphenyl)-3-[2-(4-methoxyphenyl)ethyl]-1-methyl-1,3,8-triaza-spiro[4.5]decan-4-one]	64	9.5
65	24		COc1ccc(CCN2C(=O)C3(CCN(C(=O)NO)CC3)N(C)C2c2ccc(C3CC3)cc2)cc1 (stereo not drawn) [Compound 26, 2-(4-Cyclopropylphenyl)-N-hydroxy-3-[2-(4-methoxyphenyl)ethyl]-1-methyl-4-oxo-1,3,8-triazaspiro[4.5]decane-8-carboxamide]	5	
74	19		COc1ccc(CCN2C(=O)C3(CCN(C(=O)NN)CC3)N(C)C2c2ccc(C3CC3)cc2)cc1 (stereo not drawn) [Compound 80, 2-(4-cyclopropylphenyl)-3-[2-(4-methoxyphenyl)ethyl]-1-methyl-4-oxo-1,3,8-triazaspiro[4.5]decane-8-carbohydrazide]	24	
70	8	0.611	COc1ccc(CCN2C(=O)C3(CCN(C(N)=O)CC3)N(C)C2c2ccc(C(C)(C)C)cc2)cc1 (stereo not drawn) [Compound 12, 2-(4-tert-Butylphenyl)-3-[2-(4-methoxyphenyl)ethyl]-1-methyl-4-oxo-1,3,8-triaza-spiro[4.5]decane-8-carboxylic acid amide]	40	
87	9	0.579	COc1ccc(CCN2C(=O)C3(CCN(C(N)=O)CC3)N(C)C2c2ccc(C3CC3)cc2)cc1 (stereo not drawn) [Compound 7, 2-(4-Cyclopropylphenyl)-3-[2-(4-methoxyphenyl)ethyl]-1-methyl-4-oxo-1,3,8-triaza-spiro[4.5]decane-8-carboxylic acid amide]	12	23.5
82	17		CONC(=O)N1CCC2(CC1)C(=O)N(CCc1ccc(OC)cc1)C(c1ccc(C3CC3)cc1)N2C (stereo not drawn) [Compound 25, 2-(4-cyclopropylphenyl)-N-methoxy-3-[2-(4-methoxyphenyl)ethyl]-1-methyl-4-oxo-1,3,8-triazaspiro[4.5]decane-8-carboxamide]	23	
93	21	0.166	COc1ccc(CCN2C(=O)C3(CCN(C(N)=NC#N)CC3)N(C)C2c2ccc(OC)cc2)cc1 (stereo not drawn) [Compound 30, N′-cyano-2-(4-methoxyphenyl)-3-[2-(4-methoxyphenyl)ethyl]-1-methyl-4-oxo-1,3,8-triazaspiro[4.5]decane-8-carboximidamide]	91	6
92	12	0.25	COc1ccc(CCN2C(=O)C3(CCN(C(N)=O)CC3)N(C)C2Cc2ccc(C(C)(C)C)cc2)cc1 (stereo not drawn) [Compound 58, 2-(4-tert-Butylbenzyl)-3-[2-(4-methoxyphenyl)ethyl]-1-methyl-4-oxo-1,3,8-triazaspiro[4.5]decane-8-carboxylic acid amide]	68	4.4
87	12		CCN(CC)c1ccc(C2N(CCc3ccc(OC)cc3)C(=O)C3(CCN(C(N)=O)CC3)N2C)cc1 (stereo not drawn) [Compound 10, 2-[4-(Diethylamino)phenyl]-3-[2-(4-methoxyphenyl)ethyl]-1-methyl-4-oxo-1,3,8-triaza-spiro[4.5]decane-8-carboxylic acid amide]	5	
90	13	0.32	COc1ccc(CCN2C(=O)C3(CCN(C(N)=O)CC3)N(C)[C@@H]2c2ccc(C3CC3)cc2)cc1 [Compound 98, (S)-2-(4-cyclopropylphenyl)-3-[2-(4-methoxyphenyl)ethyl]-1-methyl-4-oxo-1,3,8-triaza-spiro[4.5]decane-8-carboxylic acid amide]	13	13

Second part, the compound before the results:

Structure (SMILES)	inhibition at 1 µM [2] [%]	IC50 [3] [µM]	IC50 [2] [µM]	inhibition at 10 µM [1] [%]	IC50 [1] [µM]
COc1ccc(CCN2C(=O)C3(CCN(C(=O)N4CCOCC4)CC3)N(C)C2c2ccc(C3CC3)cc2)cc1 (stereo not drawn) [Compound 24, 2-(4-Cyclopropylphenyl)-3-[2-(4-methoxyphenyl)ethyl]-1-methyl-8-(morpholin-4-ylcarbonyl)-1,3,8-triaza-spiro[4.5]decan-4-one]	82	13		27	
CN1C(c2ccc(C3CC3)cc2)N(CCCc2ccccc2)C(=O)C12CCN(C(=O)C1CC1)CC2 (stereo not drawn) [Compound 45, 8-Cyclopropanecarbonyl-2-(4-cyclopropylphenyl)-3-(3-phenylpropyl)-1-methyl-1,3,8-triazaspiro-[4.5]decan-4-one]	77	6.2	0.287	87	3.3
COc1ccc(CCN2C(=O)C3(CCN(C(=O)N4CCN(C)CC4)CC3)N(C)C2c2ccc(C3CC3)cc2)cc1 (stereo not drawn) [Compound 22, 2-(4-Cyclopropylphenyl)-3-[2-(4-methoxyphenyl)ethyl]-1-methyl-8-[(4-methylpiperazin-1-yl)carbonyl]-1,3,8-triaza-spiro[4.5]decan-4-one]	51	18		58	
CC(C)NC(=O)N1CCC2(CC1)C(=O)N(CCCc1ccccc1)C(c1ccc(C3CC3)cc1)N2C (stereo not drawn) [Compound 52, 2-(4-Cyclopropylphenyl)-1-methyl-4-oxo-3-(3-phenylpropyl)-1,3,8-triazaspiro-[4.5]decane-8-carboxylic acid isopropyl amide]	89	12		79	
COc1ccc(CCN2C(=O)C3(CCN(C(=O)NC4CCCC4)CC3)N(C)C2c2ccc(C3CC3)cc2)cc1 (stereo not drawn) [Compound 20, 2-(4-Cyclopropylphenyl)-3-[2-(4-methoxyphenyl)ethyl]-1-methyl-4-oxo-1,3,8-triaza-spiro[4.5]decane-8-carboxylic acid cyclopentylamide]	93	8	0.186	86	4
CN1C(c2ccc(C3CC3)cc2)N(CCc2ccc(OC(F)(F)F)cc2)C(=O)C12CCN(C(N)=O)CC2 (stereo not drawn) [Compound 14, 2-(4-Cyclopropylphenyl)-3-[2-(4-trifluoromethoxyphenyl)ethyl]-1-methyl-4-oxo-1,3,8-triaza-spiro[4.5]decane-8-carboxylic acid amide]	59	15		75	
COc1ccc(CCN2C(=O)C3(CCN(C(=NC#N)Oc4ccccc4)CC3)N(C)C2c2ccc(OC)cc2)cc1 (stereo not drawn) [Compound 67, 8-(phenyl-N-cyano-1-carbimidate)-2-(4-methoxyphenyl)-3-[2-(4-methoxyphenyl)ethyl]-1-methyl-1,3,8-triaza-spiro[4.5]decan-4-one]	91	10		80	
CC(=O)N1CCC2(CC1)C(=O)N(CCCc1ccccc1)C(c1ccc(C3CC3)cc1)N2C (stereo not drawn) [Compound 44, 8-Acetyl-2-(4-cyclopropylphenyl)-3-(3-phenylpropyl)-1-methyl-1,3,8-triazaspiro-[4.5]decan-4-one]	73	15		61	
CN(C)C(=O)N1CCC2(CC1)C(=O)N(CCCc1ccccc1)C(c1ccc(C3CC3)cc1)N2C (stereo not drawn) [Compound 53, 2-(4-Cyclopropylphenyl)-1-methyl-4-oxo-3-(3-phenylpropyl)-1,3,8-triazaspiro-[4.5]decane-8-carboxylic acid dimethylamide]	93	4.5		77	
